# Target: Egl nine homolog 1 (Homo sapiens, UniProt Q9GZT9)
# Assay: Inhibition Assay: The IC50 values for the PHD2 enzyme (residues 181-417) were determined by mixing increasing amounts of inhibitor with a fixed amount of enzyme (5 nM, final concentration) and Biotin labeled peptide (Biotin-Asp-Leu-Glu-Met-Leu-Ala-Pro-Tyr-Ile-Pro-Met-Asp-Asp-Asp-Phe-Gln-Leu, 1 uM final concentration) and 2-Oxyglutarate (2 uM final concentration) in 50 mM HEPES, 50 mM KCl, 0.5 mM TCEP, 2 uM FeCl2, 0.1 mg/ml BSA, at pH 7.3. The reaction was conducted by pre-incubating the enzyme in the presence of inhibitor for 60 min at room temperature. The activity of the free enzyme was measured by adding the peptide, the 2-Oxoglutarate (see above for final concentrations), and Ascorbic Acid (1 mM final concentration). The enzymatic activity was quenched after 60 min by adding an excess of a tight binding inhibitor to the assay mixture. The amount of product released was measured by using a LC/MS system (Agilent HPLC with Applied Biosystems API3000 Mass Spectrometer).
# Chain of Egl nine homolog 1 (Q9GZT9 whole entry, the tested form may be a part): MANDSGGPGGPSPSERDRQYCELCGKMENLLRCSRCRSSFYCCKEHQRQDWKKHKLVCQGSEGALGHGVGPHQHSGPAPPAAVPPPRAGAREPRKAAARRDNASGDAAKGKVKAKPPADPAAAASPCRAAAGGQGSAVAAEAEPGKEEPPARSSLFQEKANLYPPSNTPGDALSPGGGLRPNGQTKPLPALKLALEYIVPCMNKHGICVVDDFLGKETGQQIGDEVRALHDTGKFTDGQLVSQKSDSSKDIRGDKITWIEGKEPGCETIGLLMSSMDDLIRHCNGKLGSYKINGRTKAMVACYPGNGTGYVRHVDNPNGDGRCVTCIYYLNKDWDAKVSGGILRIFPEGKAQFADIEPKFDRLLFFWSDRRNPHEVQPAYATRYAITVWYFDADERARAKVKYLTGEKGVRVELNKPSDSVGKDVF
row,Compound,IC50 [nM]
1,COc1cc(-c2cnn(-c3ccc(C(=O)NCCC4CCCN4C)cn3)c2O)ccn1 (stereo unspecified),126
2,COc1cc(-c2cnn(-c3ccc(C(=O)NCCCN4CCCC4)cn3)c2O)ccn1,97.7
3,CN1CCC(NC(=O)c2ccc(-n3ncc(-c4ccc(C#N)cc4)c3O)nc2)CC1=O (stereo unspecified),129
4,COc1cc(-c2cnn(-c3ccc(C(=O)NCCCN4CCCCC4)cn3)c2O)ccn1,87.1
5,COCCNC(=O)c1cnc(-n2ncc(-c3ccc(C#N)cc3)c2O)cc1C,97.7

# Now those with a lower IC50, led by results:
row,IC50 [nM],Compound
1,77.6,CCN1CCC(NC(=O)c2ccc(-n3ncc(-c4ccnc(OC)c4)c3O)nc2)CC1
2,10,CC(C)(C)NC(=O)c1ccc(-n2ncc(-c3cccnc3)c2O)nc1
3,51.3,COc1cc(-c2cnn(-c3ccc(C(=O)NCCCN4CCCC4=O)cn3)c2O)ccn1
4,66.1,COc1cc(C#N)ccc1-c1cnn(-c2ccc(C(=O)NCCC3CCCO3)cn2)c1O (stereo unspecified)
5,37.2,COc1cc(-c2cnn(-c3ccc(C(=O)NCCCn4ccnc4)cn3)c2O)ccn1
6,56.2,CCN1CCC(CN(C)C(=O)c2ccc(-n3ncc(-c4ccc(C#N)cc4)c3O)nc2)C1 (stereo unspecified)
